Assay results reported in ChEMBL document CHEMBL1201862, “PubChem BioAssay data set” (2004).
Activity calls are given as the source filed them.

Tests used:
[1] = cells; type: functional
[2] = biological target: FAD-linked sulfhydryl oxidase ALR (Homo sapiens, UniProt P55789); test: inhibitors of human ALR sulfhydryl oxidase, dose response, biochemical, H2O2 detection, luminescence, cherry-pick (AID 493248)
[3] = inhibitors of intracellular T. cruzi replication, confirmation, NIH3T3 host cells, beta-gal luminescence (AID 2044); type: functional, cell-based;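 note: intracellular parasites grown in NIH/3T3 mouse fibroblasts as host cells; luminescent beta-galactosidase reporter signal from transgenic T. cruzi replicating inside host cells; inhibitors lower the luminescence signal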
[4] = cytotoxicity toward NIH3T3 fibroblasts, dose response, counter-screen, cell-based, ATP luminescence, mouse fibroblasts (AID 2010); type: functional;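 note: cells exposed to compound for about 90 hours before reading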
[5] = biological target: Cytochrome P450 2D6 (Homo sapiens, UniProt P10635);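 note: CYP2D6 member of a cytochrome P450 panel assay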
[6] = HEp-2 cell cytotoxicity, dose response, cytotoxicity control for RSV inhibitor project, HTS (AID 2410); type: functional; settings: human respiratory syncytial virus
[7] = biological target: Cytochrome P450 2C19 (Homo sapiens, UniProt P33261); test: Cytochrome panel assay with activity outcomes. Panel member name: p450-cyp2c19 Compounds with AC50 equal or less than 10 uM are considered active; type: functional
[8] = biological target: T1, Polyadenylate-binding protein 1 (Homo sapiens, UniProt P11940); test: PABP1 MLLE–PAM2 interaction inhibitors, dose response, miRNA deadenylation inhibitor project, biochemical, fluorescence polarization, Cy5-PAM2 peptide, secondary (AID 602260); type: functional; settings: read-out: IC50_Mean
[9] = biological target: T1, Polyadenylate-binding protein 1; test: PABP1 MLLE–PAM2 binding inhibitor potency, dose response, biochemical, fluorescence polarization, FITC-PAM2 peptide (AID 602259); type: functional; settings: read-out: IC50_Mean
[10] = biological target: Luciferin 4-monooxygenase (Photinus pyralis, UniProt P08659); test: firefly luciferase enzyme inhibitors, dose response, biochemical, luminescence (AID 1891)
[11] = Luminescence Cell-Based Dose Confirmation HTS to Identify Inhibitors of Platelet Dense Granule Release. [Related pubchem assays: 1663 (Primary HTS), 1678 (Summary of Project)]; type: functional
[12] = cells; type: functional, cell-based
[13] = cells; type: functional, cell-based; remark: listed apart in the source
[14] = growth suppression of PTEN-null colon cells, dose response, cell-based, HCT116 PTEN knockout (AID 1047); type: functional;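 note: HCT116 colon tumor cells with PTEN knocked out; cells exposed to compound for 60 hours before readout; potency for loss of cell viability measured by luminescence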
[15] = growth suppression of beta-catenin-knockout colon cells, dose response, cell-based, HCT116, human colon tumor (AID 1045); type: functional;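 note: HCT116 colon tumor cells with beta catenin knocked out; cells exposed to compound for 60 hours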
[16] = biological target: Cytochrome P450 3A4 (Homo sapiens, UniProt P08684);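 note: CYP3A4 tested as one member of a cytochrome P450 panel screen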
[17] = biological target: T2, Cytochrome P450 1A2 (Homo sapiens, UniProt P05177);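 note: PubChem cytochrome P450 panel assay, CYP1A2 panel member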
T2 sequence (P05177 whole entry): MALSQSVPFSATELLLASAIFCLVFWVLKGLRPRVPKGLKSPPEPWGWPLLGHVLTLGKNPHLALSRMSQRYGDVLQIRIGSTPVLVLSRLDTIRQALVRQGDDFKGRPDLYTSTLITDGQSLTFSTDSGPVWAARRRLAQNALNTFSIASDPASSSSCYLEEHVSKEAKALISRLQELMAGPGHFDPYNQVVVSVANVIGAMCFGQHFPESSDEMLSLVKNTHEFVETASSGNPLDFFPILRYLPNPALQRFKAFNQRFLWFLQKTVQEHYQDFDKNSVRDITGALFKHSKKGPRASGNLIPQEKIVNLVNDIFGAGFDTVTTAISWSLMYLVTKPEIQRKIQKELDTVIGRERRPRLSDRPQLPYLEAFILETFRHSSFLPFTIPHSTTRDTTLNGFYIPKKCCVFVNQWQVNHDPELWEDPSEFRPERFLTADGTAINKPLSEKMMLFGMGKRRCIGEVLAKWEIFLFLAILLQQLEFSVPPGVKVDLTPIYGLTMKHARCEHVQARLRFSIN

[18] = Luminescence Cell-Based Dose Retest to Confirm Inhibitors of Cancer Stem Cells. [Related pubchem assays (depositor defined):AID2717, AID2721]; type: functional; settings: Homo sapiens
[19] = Shn3 3'UTR reporter inhibitors, dose response, cell-based, Clone20 osteoblasts, firefly luciferase, cherry-picked (AID 624132); type: functional;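 note: firefly luciferase luminescence from reporter carrying the Shn3 3'UTR in osteoblasts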
[20] = control 3'UTR Renilla luciferase suppression, dose response, counter-screen for Shn3 inhibitor project, cell-based, Clone20-Shn3RL, cherry-picked (AID 624133); type: functional
[21] = HepG2 cell cytotoxicity, dose response, cytotoxicity control for Shn3 inhibitor project, CellTiter-Glo, cherry-picked (AID 624134); type: functional, cell-based

FAD-linked sulfhydryl oxidase ALR, sequence (P55789 whole entry): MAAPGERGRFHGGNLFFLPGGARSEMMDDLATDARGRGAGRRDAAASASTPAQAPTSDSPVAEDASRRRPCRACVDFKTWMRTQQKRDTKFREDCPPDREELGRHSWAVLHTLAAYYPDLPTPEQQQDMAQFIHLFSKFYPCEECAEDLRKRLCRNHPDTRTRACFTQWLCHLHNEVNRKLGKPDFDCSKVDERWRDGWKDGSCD
Cytochrome P450 2C19, sequence (P33261 whole entry): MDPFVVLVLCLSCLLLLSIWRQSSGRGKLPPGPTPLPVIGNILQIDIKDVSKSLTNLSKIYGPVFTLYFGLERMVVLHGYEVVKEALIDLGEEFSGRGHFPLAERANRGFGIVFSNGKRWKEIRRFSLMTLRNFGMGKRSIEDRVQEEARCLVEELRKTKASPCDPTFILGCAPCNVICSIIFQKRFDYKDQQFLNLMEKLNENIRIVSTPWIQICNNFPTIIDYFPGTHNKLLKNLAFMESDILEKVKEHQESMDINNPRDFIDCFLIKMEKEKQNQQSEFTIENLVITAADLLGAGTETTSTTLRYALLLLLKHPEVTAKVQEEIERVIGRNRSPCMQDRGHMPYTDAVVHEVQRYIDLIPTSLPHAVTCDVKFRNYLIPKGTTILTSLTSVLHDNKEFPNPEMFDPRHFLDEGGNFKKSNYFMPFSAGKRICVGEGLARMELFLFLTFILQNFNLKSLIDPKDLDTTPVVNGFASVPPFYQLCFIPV
Cytochrome P450 2D6, sequence (P10635 whole entry): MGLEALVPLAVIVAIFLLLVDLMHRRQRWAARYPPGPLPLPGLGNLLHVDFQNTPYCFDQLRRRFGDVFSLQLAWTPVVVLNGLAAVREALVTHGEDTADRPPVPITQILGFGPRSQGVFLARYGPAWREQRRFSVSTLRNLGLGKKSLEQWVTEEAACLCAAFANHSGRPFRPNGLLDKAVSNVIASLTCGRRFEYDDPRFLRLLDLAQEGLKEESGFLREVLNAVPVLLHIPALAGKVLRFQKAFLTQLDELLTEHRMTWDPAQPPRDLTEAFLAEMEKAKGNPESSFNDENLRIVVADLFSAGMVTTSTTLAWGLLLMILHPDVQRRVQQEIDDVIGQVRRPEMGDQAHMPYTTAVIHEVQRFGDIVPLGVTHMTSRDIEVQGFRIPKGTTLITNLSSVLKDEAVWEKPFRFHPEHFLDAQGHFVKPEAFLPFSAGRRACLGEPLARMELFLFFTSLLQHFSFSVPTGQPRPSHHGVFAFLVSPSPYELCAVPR
T1 sequence (P11940 whole entry): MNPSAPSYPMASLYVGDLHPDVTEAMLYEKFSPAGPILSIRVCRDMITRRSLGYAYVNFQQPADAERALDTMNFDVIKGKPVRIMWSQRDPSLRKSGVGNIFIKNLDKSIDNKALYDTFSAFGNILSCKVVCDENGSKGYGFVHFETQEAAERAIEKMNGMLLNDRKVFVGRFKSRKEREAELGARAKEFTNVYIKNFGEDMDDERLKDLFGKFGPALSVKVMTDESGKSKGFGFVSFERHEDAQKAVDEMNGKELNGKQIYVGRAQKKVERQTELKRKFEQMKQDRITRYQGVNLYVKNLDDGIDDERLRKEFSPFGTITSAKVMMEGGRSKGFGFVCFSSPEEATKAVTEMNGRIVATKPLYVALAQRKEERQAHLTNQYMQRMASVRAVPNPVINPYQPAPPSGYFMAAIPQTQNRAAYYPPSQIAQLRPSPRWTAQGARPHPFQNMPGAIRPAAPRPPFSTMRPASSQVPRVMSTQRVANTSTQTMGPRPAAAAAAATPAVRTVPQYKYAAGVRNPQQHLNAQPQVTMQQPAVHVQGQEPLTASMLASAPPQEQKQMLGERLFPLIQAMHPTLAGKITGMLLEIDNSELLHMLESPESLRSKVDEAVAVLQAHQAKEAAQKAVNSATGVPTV
Luciferin 4-monooxygenase, sequence (P08659 whole entry): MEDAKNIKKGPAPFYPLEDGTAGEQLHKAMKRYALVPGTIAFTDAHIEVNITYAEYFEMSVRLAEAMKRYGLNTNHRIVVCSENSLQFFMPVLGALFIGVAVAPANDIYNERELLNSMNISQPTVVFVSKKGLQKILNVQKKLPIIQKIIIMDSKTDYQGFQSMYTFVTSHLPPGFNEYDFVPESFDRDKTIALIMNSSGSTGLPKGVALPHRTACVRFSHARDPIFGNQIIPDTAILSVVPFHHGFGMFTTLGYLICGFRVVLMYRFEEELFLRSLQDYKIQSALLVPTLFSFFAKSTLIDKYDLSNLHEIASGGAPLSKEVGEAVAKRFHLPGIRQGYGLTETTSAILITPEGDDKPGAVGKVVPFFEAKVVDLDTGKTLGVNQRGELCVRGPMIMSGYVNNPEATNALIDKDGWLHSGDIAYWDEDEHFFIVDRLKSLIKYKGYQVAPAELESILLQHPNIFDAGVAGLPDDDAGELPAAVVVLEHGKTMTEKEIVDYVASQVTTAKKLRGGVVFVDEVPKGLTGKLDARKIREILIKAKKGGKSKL
Cytochrome P450 3A4, sequence (P08684 whole entry): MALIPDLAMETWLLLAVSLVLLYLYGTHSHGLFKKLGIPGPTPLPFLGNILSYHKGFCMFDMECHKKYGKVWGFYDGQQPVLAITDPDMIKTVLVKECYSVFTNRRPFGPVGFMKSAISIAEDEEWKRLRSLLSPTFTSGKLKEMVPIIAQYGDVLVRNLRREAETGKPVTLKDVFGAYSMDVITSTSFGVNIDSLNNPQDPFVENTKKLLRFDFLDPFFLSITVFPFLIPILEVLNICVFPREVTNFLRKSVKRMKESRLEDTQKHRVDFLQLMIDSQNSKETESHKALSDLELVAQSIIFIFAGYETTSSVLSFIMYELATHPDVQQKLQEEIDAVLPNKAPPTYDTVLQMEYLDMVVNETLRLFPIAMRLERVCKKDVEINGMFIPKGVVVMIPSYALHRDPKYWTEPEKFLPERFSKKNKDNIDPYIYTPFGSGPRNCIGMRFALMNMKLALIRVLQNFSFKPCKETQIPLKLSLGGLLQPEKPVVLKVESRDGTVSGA

SMILES: CC(C)=CCN1CCN(CCC2=C(C)CCCC2(C)C)CC1CCO (configuration not stated)
- IC50 [1]: 21.8 µM (active)

SMILES: Cn1cc(C(=O)N2CCCC(Nc3ccc(F)cc3)C2)c2ccccc21 (configuration not stated)
- AC50 [2]: 1.5 µM (active)

SMILES: O=C(Nc1cccc(NC(=O)c2ccc(-c3cccc(Br)c3)o2)c1)c1ccco1
- EC50 [3]: 3.69 µM (active)
- EC50 [4]: 14.9 µM (active)
- AC50 [5]: 17.8 µM (inconclusive)
- CC50 [6]: 16 µM (active)

SMILES: O=C(O)CC[P+](c1ccccc1)(c1ccccc1)c1ccccc1
- AC50 [7]: inconclusive
- AC50 [5]: 3.98 µM (inconclusive)

SMILES: CN1CCN(C(=S)c2ccc(N(C)C)cc2)CC1
- AC50 [2]: 1.45 µM (active)

SMILES: N#Cc1c2n(c(=S)n(-c3ccccc3[N+](=O)[O-])c1=O)CCCCC2
- IC50 [8]: > 66 µM (inactive)
- IC50 [9]: > 66 µM (inactive)

SMILES: COc1cccc(C2=CC(c3ccc(OC)c(OC)c3OC)n3nnnc3N2)c1 (configuration not stated)
- CC50 [6]: 6.56 µM (active)

SMILES: Cc1cc(C)c2cc(CN(Cc3ccco3)C(=O)NCc3ccccc3)c(O)nc2c1
- EC50 [10]: > 112 µM (not active)
- EC50 [11]: > 112 µM (not active)

SMILES: CC(=O)c1c(C)nc2nonc2c1N
- EC50 [10]: > 112 µM (not active)
- EC50 [11]: 26.6 µM (active)

SMILES: COCc1c(C(=O)N/N=C(\C)c2ccc(Cl)s2)nnn1-c1nonc1N
- EC50 [12]: > 350 µM (not active)
- EC50 [13]: > 350 µM (not active)

SMILES: CC1CN=C(NC(=O)c2cccc([N+](=O)[O-])c2)S1 (configuration not stated)
- IC50 [8]: > 66 µM (inactive)
- IC50 [9]: > 66 µM (inactive)

SMILES: CCCCOC(=O)c1ccc(NC(=O)C(=O)NCc2cccnc2)cc1
- EC50 [12]: > 350 µM (not active)
- EC50 [13]: > 350 µM (not active)

SMILES: COc1ccc(S(=O)(=O)Cc2ccc(C(=O)N3CCN(c4ccc(Cl)cc4)CC3)o2)cc1
- EC50 [14]: 16.3 µM (active)
- AC50 [2]: 5.64 µM (active)
- EC50 [15]: 38.8 µM (active)

SMILES: Cc1cccn2c(=O)c(/C=N/Cc3ccco3)c(Nc3ccc(SC(F)F)cc3)nc12
- EC50 [14]: 10.7 µM (active)
- AC50 ([7]; read-out: AC50): 4.47 µM (inconclusive)
- EC50 [15]: 14 µM (active)

SMILES: O=C(CS(=O)(=O)c1ccccc1)Nc1ccc(N2CCOCC2)cc1
- EC50 [12]: > 350 µM (not active)
- EC50 [13]: > 350 µM (not active)

SMILES: CC(=O)c1ccc(N2CCC(c3cc(-c4ccc(Cl)cc4)[nH]n3)CC2)c([N+](=O)[O-])c1
- AC50 [16]: 39.8 µM (inconclusive)
- AC50 [17]: 2.82 µM (inconclusive)
- EC50 [3]: 1.13 µM (active)
- AC50 [18]: 2.39 µM (active)
- EC50 [4]: > 60 µM (inconclusive)
- AC50 [19]: 5 µM (active)
- AC50 [20]: 20 µM (active)
- AC50 [21]: > 70 µM (inactive)

SMILES: CC(C)CN(C(=O)COC(=O)c1ccc2c(c1)NC(=O)CS2)C1CCS(=O)(=O)C1 (configuration not stated)
- IC50 [8]: > 66 µM (inactive)
- IC50 [9]: > 66 µM (inactive)

SMILES: COc1ccc(C2c3c(ncn(CCN4CCOCC4)c3=N)Oc3ccc4ccccc4c32)cc1OC (configuration not stated)
- AC50 ([7]; read-out: AC50): 25.1 µM (inconclusive)
- AC50 [5]: 15.8 µM (inconclusive)

SMILES: CCOC(=O)c1cc(CC)sc1NC(=O)c1ccc([N+](=O)[O-])c(N2CCOCC2)c1
- EC50 [14]: 39.9 µM (active)
- EC50 [15]: 34.2 µM (active)

SMILES: COc1cc2c(cc1NC(=O)CSc1nnnn1-c1ccccc1)oc1ccccc12
- CC50 [6]: 15.6 µM (active)

SMILES: Cc1ccc(-c2ccc(=O)n(CC(=O)NCc3ccco3)n2)cc1
- AC50 [16]: 25.1 µM (inconclusive)
- AC50 [17]: 15.8 µM (inconclusive)
- AC50 [5]: 22.4 µM (inconclusive)

SMILES: COC(=O)[C@H](CC(C)C)NC(=O)NCCC1=CCCCC1
- IC50 [1]: 21.6 µM (active)

SMILES: CN(C)c1ccc(/C=N/NC(=O)c2ccco2)cc1
- AC50 [2]: 6.78 µM (active)

SMILES: CCCOc1ccc(NC(=O)CC2C(=O)N(CC)C(=S)N2CCCN2CCN(Cc3ccccc3)CC2)cc1 (configuration not stated)
- CC50 [6]: 14.3 µM (active)

SMILES: FC(F)c1nnc2ccc(Cl)nn12
- IC50 [1]: 7.13 µM (active)
